Blank lines part the entries; values can stand above or below the compound they belong to.
Legend:
[1] = molecular target: T1, Cellular Retinoic Acid Binding Protein II (CRABPII) (Homo sapiens, UniProt P29373); assay: Fluorometric competitive binding titration of DC271 in CRABPII
T1 sequence (P29373 1-138): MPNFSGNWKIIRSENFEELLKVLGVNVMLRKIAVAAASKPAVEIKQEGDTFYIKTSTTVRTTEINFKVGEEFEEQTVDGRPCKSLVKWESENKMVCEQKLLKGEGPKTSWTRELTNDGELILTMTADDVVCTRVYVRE
Source text: A number of highly fluorescent analogues of retinoic acid (ATRA) have been synthesised at Durham University for use in a variety of imaging and biophysical studies. The fluorescence emission of these fluorescent retinoids, including DC271, is highly solvatochromatic and the intensity of this emission is strongly dependent on environment. Therefore, in a nonpolar solvent, the emission is blue shifted (425-500 nm) and intense, while in a polar solvent the emission is red shifted (500-600 nm) and weak (severely quenched in water). […] When EC23® is titrated against CRABPII-DC271 complex the reduction in fluorescence emission intensity can be used to produce a competition binding curve allowing the estimation of the Ki (inhibition constant) of the competition of EC23® for DC271 bound to CRABPII. […] For the competition with EC23® a solution of [DC271] =49.8 nM and [CRABPII]=75 nM was prepared in PBS buffer (20 mM K2HPO4, 100mM KCl, pH 7.4 buffer) and the fluorescence intensity was measured at 450 nm with excitation at 380 nm. […] The emission intensity of DC271 was plotted against Log[EC23], and a one site competitive binding model was fit to the resultant data (FIG. 5). This provided an estimation of the Log Ki of the competitive binding reaction (Table 1).

ERK 1/2 phosphorylation = assay: Induction of ERK 1/2 phosphorylation (non-genomic response); type: cell-based; settings: for kinase activity (ERK 1/2 phosphorylation, non-genomic response): result in words
Description: (§1) (b) The influence of a low concentration of retinoids on number of neurites from SH-SS5Y cells was determined.
(§2) The action of retinoic acid in the brain, the relative importance of genomic versus non-genomic activity of retinoic acid was investigated by determining whether some RAR ligands preferentially activated one pathway. Retinoic acid (FIG. 1) was used as a compound known to induce both genomic and non-genomic pathways of retinoic acid signalling. We measured its relative activity as an inducer of gene transcription using a construct in which the promoter element to which the retinoic acid receptor binds (retinoic acid response element, RARE) drives a LacZ reporter (genomic response). This was compared to a cell based assay to measure induction of ERK 1/2 phosphorylation (non-genomic response).

[2] = system: retinoic acid response element (RARE) driven LacZ reporter in Sil-15 reporter cells (F9-RARE-lacZ cells); assay: RARE-driven LacZ reporter gene assay (genomic response, Sil-15 reporter cells, X-Gal assay); type: cell-based; settings: for activation of transcription via a RARE (genomic response): Sil-15 reporter cells, result in words
Source text: as §2
Sil-15 reporter cells (also called F9-RARE-lacZ cells) were used in the X-Gal Assay. This cell line was derived from a stable transfection of F9 teratocarcinoma cells with a plasmid containing the LacZ gene under the control of a promoter linked to a retinoic acid response element (RARE). These cells were used to visually detect and semi-quantify the transcriptional activity of retinoic acid and other retinoids by monitoring β-galactosidase activity produced by the reporter cells in response to the retinoic acid/retinoids in the surrounding medium.
Sil-15 cells were plated in a 0.1% gelatin-coated 96-well plate and grown to about 85-90% confluence in Dulbecco's modified Eagle's medium (DMEM) containing 10% foetal calf serum and 0.8 mg/ml G418 sulfate for selection.
Serial dilutions of retinoids were prepared from the stock solutions under a red/orange light. A standard curve of RA was included in the experiment as a positive control. The RA/chemicals dilutions were added above the seeded Sil-15 cells in the 96-well plate and then the plate was wrapped with aluminium foil and incubated overnight in a humid atmosphere containing 5% CO2 at 37° C. All the concentrations for the RA and the two chemicals were tested in triplicates.
The next day, Sil-15 cells were washed twice with 1× PBS, fixed with 100 μl per well of 1% glutaraldehyde fixation solution for 15 minutes, washed again two times with 1× PBS and finally β-galactosidase activity was visualized by adding 100 μl of a freshly prepared X-Gal developing solution (5-bromo-4-chloro-3-indolyl-β-d-galactopyranoside) to each well. The plate was incubated overnight at 37° C. in 5% CO2. The plate was read on an Emax microplate reader at 650 nm.

SH-SY5Y cells [3] = assay: Neurite outgrowth screening assay in SH-SY5Y cells; type: cell-based; settings: for effect on number of neurites compared to control: 10 nM retinoid, SH-SY5Y cells
Description: as §1

SH-SY5Y cells [4] = assay: Cell number / cell survival of SH-SY5Y cells; type: cell-based; settings: 10 nM, compared to same concentration of retinoic acid
Photostability = type: physicochemical
[5] = Induction of own catabolism in vivo; settings: unlike retinoic acid

SMILES: CC(C)N1CCC(C)(C)c2cc(C#Cc3ccc(C(=O)O)cc3)ccc21 [DC271]
Kd ([1]; direct binding of the fluorescent retinoid, read-out: dissociation constant against CRABPII, Kd): 49.1 ± 2.6 nM

SMILES: COCCOCOc1cc2ccc(-c3ccc(C(=O)O)cc3)cc2cc1C12CC3CC(CC(C3)C1)C2 [CD2665]
kinase activity (ERK 1/2 phosphorylation, non-genomic response) (ERK 1/2 phosphorylation): has significant kinase activity
activation of transcription via a RARE (genomic response) [2]: shows no sign of activity to regulate gene expression via a RARE

SMILES: CC1(C)CCC(C)(C)c2cc(C#Cc3ccc(C(=O)O)cc3)ccc21 [EC23®, 4-(5,5,8,8-tetramethyl-5,6,7,8-tetrahydro-naphthalen-2-ylethynyl) benzoic acid]
number of SH-SY5Y cells (SH-SY5Y cells [4]): greatly enhances the number of SH-SY5Y cells
capacity to induce ERK phosphorylation (western blotting of phosphorylated ERK) (ERK 1/2 phosphorylation; 10 μM, after 20 minutes, versus same concentration of retinoic acid): much greater in its capacity to induce ERK phosphorylation than the same concentration of retinoic acid
photostability (Photostability): photostable
Ki ([1]; competition with DC271 49.8 nM, CRABPII 75 nM, PBS pH 7.4, one site model): 3.16 nM
induction of its own catabolism in vivo [5]: does not induce its own catabolism in vivo
effect on number of neurites compared to control (SH-SY5Y cells [3]): strong and significant effect
fold greater activity than retinoic acid (ATRA) in transactivation of a RAR driven reporter gene ([2]; relative to retinoic acid (ATRA)): up to 500 fold

Continued, in another order:

kinase activity (ERK 1/2 phosphorylation, non-genomic response) (ERK 1/2 phosphorylation): does not activate kinase activity
SMILES: C/C(=C\c1ccc(C(=O)O)cc1)c1ccc2c(c1)C(C)(C)CCC2(C)C [TTNPB]
activation of transcription via a RARE (genomic response) [2]: can potently activate transcription via a RARE

EC50 (ERK 1/2 phosphorylation; 95% confidence interval 32.8 nM to 138.8 nM, read-out: mean EC50, ERK 1/2 kinase phosphorylation): 67.5 nM
EC50 ([2]; RARE-LacZ reporter, 95% confidence interval 90.7 pM to 391.4 pM, read-out: mean EC50, genomic activation): 0.188 nM
SMILES: CC1=C(/C=C/C(C)=C/C=C/C(C)=C/C(=O)O)C(C)(C)CCC1 [ATRA, all-trans-retinoic acid]
effect on number of neurites compared to control (SH-SY5Y cells [3]): no significant effect
neurite outgrowth (SH-SY5Y cells [3]; SH-SY5Y cell line, preliminary results, result in words): promotes neurite outgrowth
activation of transcription via a RARE (genomic response) [2]: induces gene transcription of a RAR driven reporter gene

Reference: patent US20190112272A1, “SYNTHETIC RETINOIDS FOR USE IN RAR MEDIATED CONDITIONS” (High Force Research Limited, priority 2016, published 2019)
